Molecules are shown by their SMILES.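 In this assay, cells in 96-well plates receive the compound at five concentrations for 48 hours. Endpoints are linearly interpolated between the surrounding concentrations. Abbreviation: GI50, concentration required for 50% inhibition of growth.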 Active and inactive are the calls of the source. Rule as the data show it: active = GI50 up to about 1.1 µM and inactive = higher. Bounds are passed on as bounds.

This note sets out measurements from ChEMBL document CHEMBL1201862, “PubChem BioAssay data set” (2004).

Common to all, as to assay: inhibition of tumour cell growth, NCI panel, 48 h
Assay [1] concerns SNB-75.
Assay [2] has as its system HCT-15.
In assay [3] the test system is SF-295.
The subject of assay [4] is HCT-116.
The subject of assay [5] is COLO 205.
Assay [6] relates to EKVX.
Assay [7] has as its system SK-OV-3.
Assay [8] concerns NCI-H23.
In assay [9] the test system is RPMI-8226.
Assay [10] concerns ACHN.
Assay [11] concerns CCRF-CEM.
The subject of assay [12] is K562.
Assay [13] has as its system MOLT-4.
Assay [14] concerns NCI-H522.
The subject of assay [15] is SK-MEL-5.

On to `CCOC(=O)C(=O)Nc1ccccc1C(F)(F)F`, for which the GI50 is 79.4 µM (inactive) in [1]; more than 100 µM in assay [2]; > 100 µM (inactive) in assay [3]; > 100 µM (inactive) in assay [4]; > 100 µM (inactive) in assay [5]; > 100 µM (inactive) in assay [6]. For the same compound, the GI50 in assay [7], in [8], in assay [9] and in [10] was > 100 µM (inactive) in each case.
In the case of `O=C1Nc2ccccc2C12CCCC2`, the GI50 was 54.6 µM (inactive) in [1]; > 100 µM (inactive) in [11]; > 100 µM (inactive) in assay [12]; more than 100 µM in assay [2]; > 100 µM (inactive) in assay [3]; > 100 µM (inactive) in assay [4]. The GI50 in [5] is > 100 µM (inactive); in [13], > 100 µM (inactive); in assay [6], 72.3 µM (inactive); in assay [14], > 100 µM (inactive); in [15], > 100 µM (inactive); in assay [7] it was > 100 µM (inactive). In addition, the GI50 in [8], in assay [9] and in assay [10] was > 100 µM (inactive) each time.
Take `O=C(/C=C\c1ccc(Cl)c(Cl)c1)c1ccc(Cl)cc1Cl`: the GI50 in assay [1] is 17.1 µM (inactive); in [11] it was 4.1 µM (inactive); in assay [12], 6.11 µM (inactive); in [2], 4.15 µM; in [3], 18.6 µM (inactive); in assay [4], 9.14 µM (inactive). For the same compound, the GI50 in assay [5] is > 10 µM (inactive); in assay [13], 2.99 µM (inactive); in assay [6], 23.4 µM (inactive); in [14], 15.9 µM (inactive); in [15], 14.9 µM (inactive); in assay [7], 19.9 µM (inactive). Besides, the GI50 was 0.65 µM (active) in assay [8], 3.18 µM (inactive) in [9] and 17.3 µM (inactive) in assay [10].
Regarding `CN1CCN2c3ccccc3CC(C#N)(C#N)C2C1` (configuration not stated), the GI50 in assay [1] was > 100 µM (inactive); in [11], > 100 µM (inactive); in assay [12], > 100 µM (inactive); in assay [2], more than 100 µM; in assay [3], > 100 µM (inactive); in assay [4], > 100 µM (inactive). The GI50 in assay [5], in assay [13], in assay [6], in [14], in [15] and in [7] was > 100 µM (inactive) in each case. In addition, the GI50 in assay [8], in assay [9] and in assay [10] was > 100 µM (inactive) each time.
In the case of `COc1ccc2nccc(C3OC(=O)N4CCC(=O)CC34)c2c1` (configuration not stated), the GI50 was > 100 µM (inactive) in assay [11]; > 100 µM (inactive) in [12]; more than 100 µM in [2]; > 100 µM (inactive) in assay [3]; > 100 µM (inactive) in [4]; > 100 µM (inactive) in assay [5]. Moreover, the GI50 in assay [13] is > 100 µM (inactive); in assay [6] it was > 100 µM (inactive); in [14], 6.84 µM (inactive); in assay [15] it was > 100 µM (inactive); in assay [8], > 100 µM (inactive); in assay [9] it was > 100 µM (inactive). Further, in [10], the GI50 was > 100 µM (inactive).
Turning to `Cc1c(Cl)cccc1NC(=O)c1cccc([N+](=O)[O-])c1O`, the GI50 in [1] is 17.5 µM (inactive); in assay [11], 4.2 µM (inactive); in assay [12], 17.3 µM (inactive); in assay [2], 14.4 µM; in assay [3], 16.4 µM (inactive); in assay [4], 13.7 µM (inactive). The GI50 in assay [5] was 14.1 µM (inactive); in assay [13], 5.82 µM (inactive); in assay [6], 16 µM (inactive); in assay [14], 6.44 µM (inactive); in [15] it was 3.26 µM (inactive); in assay [7] it was 25.6 µM (inactive). The GI50 was 6.87 µM (inactive) in [8], 3.24 µM (inactive) in assay [9] and 7.83 µM (inactive) in assay [10].
For the compound `CC1=C(C(=O)Nc2ccccc2C)C(/C=C/c2ccccc2)C(C(=O)Nc2ccccc2C)=C(C)N1`, the GI50 in [1] is 33.5 µM (inactive); in assay [11], 82.6 µM (inactive); in [12] it was > 100 µM (inactive); in [2], more than 100 µM; in assay [3] it was > 100 µM (inactive); in [4], > 100 µM (inactive). For the same compound, the GI50 is > 100 µM (inactive) in assay [5]; > 100 µM (inactive) in assay [6]; 67.1 µM (inactive) in assay [14]; > 100 µM (inactive) in assay [15]; > 100 µM (inactive) in assay [7]; > 100 µM (inactive) in assay [8]. Also, the GI50 in [10] is > 100 µM (inactive).
For the compound `O=C(O)/C(=C/c1ccccc1[N+](=O)[O-])c1cccs1`, the GI50 in assay [1] was > 100 µM (inactive); in assay [12], > 100 µM (inactive); in assay [2] it was more than 100 µM; in assay [3], > 100 µM (inactive); in assay [4], > 100 µM (inactive); in [5], > 100 µM (inactive). Besides, the GI50 in assay [13], in assay [6], in assay [14], in [15], in [7] and in assay [8] was > 100 µM (inactive) in each case. Also, the GI50 in [9] and in assay [10] was > 100 µM (inactive) each time.
`O=C(O)COc1ccc2c3c1C(=O)CCC3CO2` (configuration not stated): the GI50 is > 100 µM (inactive) in [11]; > 100 µM (inactive) in assay [12]; more than 100 µM in assay [2]; > 100 µM (inactive) in assay [3]; > 100 µM (inactive) in assay [4]; > 100 µM (inactive) in assay [5]. In addition, the GI50 in assay [13], in assay [6], in assay [14], in [15], in assay [7] and in [8] was > 100 µM (inactive) throughout. The GI50 in [9] and in assay [10] was > 100 µM (inactive) throughout.
Regarding `CC[P+](C)(C)CC`, the GI50 in assay [1] is > 100 µM (inactive); in [11], > 100 µM (inactive); in assay [12], > 100 µM (inactive); in assay [2], more than 100 µM; in assay [3], > 100 µM (inactive); in [4], > 100 µM (inactive). The GI50 in assay [5], in assay [13], in [6], in assay [15], in assay [7] and in [8] was > 100 µM (inactive) in each case. For the same compound, the GI50 in assay [9] and in assay [10] was > 100 µM (inactive) in each case.
As for `C[C@H](C(=O)C12CC3CC(CC(C3)C1)C2)[C@H](O)c1ccccc1`, the GI50 in assay [1] was 27 µM (inactive); in [11], 32.5 µM (inactive); in assay [12] it was 39.4 µM (inactive); in [3], 31.9 µM (inactive); in assay [4], 16.1 µM (inactive); in [5], 15 µM (inactive). In addition, the GI50 in [13] was 23.9 µM (inactive); in assay [6], 43.7 µM (inactive); in assay [14], 22 µM (inactive); in assay [15], 17.6 µM (inactive); in assay [7], 83.9 µM (inactive); in assay [8] it was 36.7 µM (inactive). Further, the figures for the GI50 in assay [9] and in [10] were 36 µM (inactive) and 33.8 µM (inactive), respectively.
As to `Cc1cn(C2CC(O)C(CO)O2)c(=O)n2nnnc12` (configuration not stated), the GI50 in assay [1] was > 100 µM (inactive); in assay [11], > 100 µM (inactive); in assay [12], > 100 µM (inactive); in [2], more than 100 µM; in [3], > 100 µM (inactive); in [4], > 100 µM (inactive). Further, the GI50 in assay [5], in [13], in assay [6], in assay [14], in [15] and in assay [7] was > 100 µM (inactive) in each case. Besides, the GI50 in assay [8] and in assay [9] was > 100 µM (inactive) in each case.
As to `CCOC(=O)C1S/C(=N\c2ccc(OC)c(OC)c2)N=C1C` (configuration not stated), the GI50 is 24.5 µM (inactive) in [1]; 22.1 µM (inactive) in assay [11]; 36.6 µM (inactive) in assay [12]; 28.6 µM in assay [2]; 36.5 µM (inactive) in assay [3]; 32.7 µM (inactive) in assay [4]. The GI50 is 69.3 µM (inactive) in [5]; 94.8 µM (inactive) in assay [6]; 17 µM (inactive) in [14]; 18.4 µM (inactive) in assay [15]; 62.7 µM (inactive) in assay [7]; 27.7 µM (inactive) in assay [8]. Besides, the GI50 in assay [10] is 33.6 µM (inactive).
`O=C(O)[C@@H](NS(=O)(=O)c1ccc([N+](=O)[O-])cc1)c1ccccc1`: the GI50 in [1] was > 100 µM (inactive); in assay [11], > 100 µM (inactive); in assay [12] it was > 100 µM (inactive); in assay [2], more than 100 µM; in assay [3] it was > 100 µM (inactive); in [5], > 100 µM (inactive). Also, the GI50 in assay [13] is > 100 µM (inactive); in assay [6] it was > 100 µM (inactive); in assay [14], 73.6 µM (inactive); in assay [15], > 100 µM (inactive); in [7] it was > 100 µM (inactive); in assay [8] it was > 100 µM (inactive). The GI50 in assay [9] and in [10] was > 100 µM (inactive) throughout.
On to `CC12CC(Sc3ccccc3N1)c1ccccc1O2` (configuration not stated), for which the GI50 was 28.2 µM (inactive) in assay [1]; 12.1 µM (inactive) in assay [11]; 14.3 µM (inactive) in assay [12]; 15.6 µM in assay [2]; 16 µM (inactive) in assay [3]; 15.2 µM (inactive) in assay [4]. In addition, the GI50 in assay [5] is 16.2 µM (inactive); in [13], 16.6 µM (inactive); in assay [6], 18.6 µM (inactive); in assay [15] it was 14.8 µM (inactive); in assay [7], 33.7 µM (inactive); in assay [8], 15.7 µM (inactive). Also, the GI50 was 13.6 µM (inactive) in [9] and 16.9 µM (inactive) in assay [10].
